From patent US20090239868A1 (priority 2007, published 2009)

Tested on: PAI-1 gene expression induced by PMA
Test: not given
Settings: J. Immunol., Vol. 165, pp. 3154-3161, 2000; cited from earlier work

SMILES	PAI-1 gene expression induced by PMA
C[C@@H]1C[C@@H]([C@H](O)CC2CC(=O)NC(=O)C2)C(=O)[C@@H](C)C1 [cycloheximide]	inhibiting substance

Tested on: TGF-β induced PAI-1 production
Test: TGF-β induced PAI-1 production in HepG2 cells (Human Serpin E1/PAI-1 DuoSet)
Type: cell-based
Settings: Compound Concentration: 0.1 μM
Procedure: HepG2 cells were seeded on a 96-well culture plate by 2×10^4 cells/well, and were incubated for 24 hours in the MEM medium containing 1% NEAA (Non-Essential Amino Acids), 1 mM pyruvate, and 10% FBS. Then, the medium was changed to a MEM medium containing 1% NEAA, 1 mM pyruvate and 1% FBS, and the cells were further incubated for 24 hours. Subsequently, after the medium was changed to a MEM medium containing 1% NEAA, 1 mM pyruvate and 1% FBS, and then the cells were treated with the test substances (final concentration: 1 μM or 0.1 μM) for one hour, TGF-β1 (final concentration: 1 ng/mL) was added and the cells were further incubated for 24 hours. As controls, a culture solution added TGF-β1 only, and a culture solution cultured without neither the test substances nor TGF-β1 were prepared. After the incubation, the PAI-1 amount was measured using Human Serpin E1/PAI-1 DuoSet (R&D Systems). The PAI-1 amount when treated with TGF-β1 only being “100%”, and the PAI-1 amount when treated without neither the test substances nor TGF-β1 being “0%”, the PAI-1 inhibition ratios of each test substance were calculated.

SMILES	Inhibition Ratio (PAI-1) [%]
O=C(Nc1cc(C(F)(F)F)cc(C(F)(F)F)c1)c1cc(Cl)ccc1O [(2)]	94.8
O=C(Nc1cc(C(F)(F)F)cc(C(F)(F)F)c1)c1cc(F)ccc1O [(5)]	71.2
O=C(Nc1cc(C(F)(F)F)cc(C(F)(F)F)c1)c1cc(Br)ccc1O [(6)]	82.3
O=C(Nc1cc(C(F)(F)F)cc(C(F)(F)F)c1)c1cc([N+](=O)[O-])ccc1O [(8)]	52.8
N#Cc1ccc(O)c(C(=O)Nc2cc(C(F)(F)F)cc(C(F)(F)F)c2)c1 [(9)]	59.4
O=C(Nc1cc(C(F)(F)F)cc(C(F)(F)F)c1)c1cc(C(F)(F)F)ccc1O [(19)]	62.2
O=C(Nc1cc(C(F)(F)F)cc(C(F)(F)F)c1)c1ccc(Cl)cc1O [(33)]	63.3
CC(C)c1cc(Br)cc(C(=O)Nc2cc(C(F)(F)F)cc(C(F)(F)F)c2)c1O [(99)]	59.1

Same assay, conditions: Compound Concentration: 1 μM

SMILES	Inhibition Ratio (PAI-1) [%]
O=C(Nc1cc(C(F)(F)F)cc(C(F)(F)F)c1)c1cc(Cl)ccc1O [(2)]	>90
O=C(Nc1cc(C(F)(F)F)ccc1C(F)(F)F)c1cc(Br)ccc1O [(3)]	>90
O=C(Nc1cc(C(F)(F)F)cc(C(F)(F)F)c1)c1ccccc1O [(4)]	>90
O=C(Nc1cc(C(F)(F)F)cc(C(F)(F)F)c1)c1cc(F)ccc1O [(5)]	>90
O=C(Nc1cc(C(F)(F)F)cc(C(F)(F)F)c1)c1cc(Br)ccc1O [(6)]	>90
O=C(Nc1cc(C(F)(F)F)cc(C(F)(F)F)c1)c1cc(I)ccc1O [(7)]	>90
O=C(Nc1cc(C(F)(F)F)cc(C(F)(F)F)c1)c1cc([N+](=O)[O-])ccc1O [(8)]	85.9
N#Cc1ccc(O)c(C(=O)Nc2cc(C(F)(F)F)cc(C(F)(F)F)c2)c1 [(9)]	>90
Cc1ccc(O)c(C(=O)Nc2cc(C(F)(F)F)cc(C(F)(F)F)c2)c1 [(10)]	89.2
CC(C)(C)c1ccc(O)c(C(=O)Nc2cc(C(F)(F)F)cc(C(F)(F)F)c2)c1 [(11)]	70.5
CC(C)(/C=C/c1ccccc1)c1ccc(O)c(C(=O)Nc2cc(C(F)(F)F)cc(C(F)(F)F)c2)c1 [(14)]	86.6
CC(C)(C#Cc1ccccc1)c1ccc(O)c(C(=O)Nc2cc(C(F)(F)F)cc(C(F)(F)F)c2)c1 [(15)]	>90
O=C(Nc1cc(C(F)(F)F)cc(C(F)(F)F)c1)c1cc(-c2ccccc2)ccc1O [(17)]	82.9
CC(C)(CCc1ccccc1)c1ccc(O)c(C(=O)Nc2cc(C(F)(F)F)cc(C(F)(F)F)c2)c1 [(18)]	55.4
O=C(Nc1cc(C(F)(F)F)cc(C(F)(F)F)c1)c1cc(C(F)(F)F)ccc1O [(19)]	>90
O=C(Nc1cc(C(F)(F)F)cc(C(F)(F)F)c1)c1cc(C(F)(F)C(F)(F)F)ccc1O [(20)]	>90
CC(=O)c1ccc(O)c(C(=O)Nc2cc(C(F)(F)F)cc(C(F)(F)F)c2)c1 [(26)]	46.8
COC(=O)c1ccc(O)c(C(=O)Nc2cc(C(F)(F)F)cc(C(F)(F)F)c2)c1 [(28)]	>90
CC(=O)Oc1ccccc1C(=O)Nc1cc(C(F)(F)F)cc(C(F)(F)F)c1 [(31)]	75.2
CC(=O)Oc1ccc(Cl)cc1C(=O)Nc1cc(C(F)(F)F)cc(C(F)(F)F)c1 [(32)]	>90
O=C(Nc1cc(C(F)(F)F)cc(C(F)(F)F)c1)c1ccc(Cl)cc1O [(33)]	>90
O=C(Nc1cccc(C(F)(F)F)c1F)c1cc(Cl)ccc1O [(35)]	>90
O=C(Nc1ccc(F)c(C(F)(F)F)c1)c1cc(Cl)ccc1O [(36)]	>90
O=C(Nc1cc(F)cc(C(F)(F)F)c1)c1cc(Cl)ccc1O [(37)]	>90
N#Cc1ccc(NC(=O)c2cc(Br)ccc2O)cc1C(F)(F)F [(39)]	>90

SMILES	Inhibition Ratio (PAI-1) [%]
Cc1c(NC(=O)c2cc(Cl)ccc2O)cccc1C(F)(F)F [(40)]	>90
O=C(Nc1ccc(C(F)(F)F)cc1)c1cc(Cl)ccc1O [(43)]	>90
O=C(Nc1cccc(Cl)c1)c1cc(Br)ccc1O [(44)]	82.4
O=C(Nc1ccc(Cl)cc1)c1cc(Br)ccc1O [(45)]	>90
O=C(Nc1cc(F)cc(F)c1)c1cc(Br)ccc1O [(46)]	>90
O=C(Nc1cc(Cl)cc(Cl)c1)c1ccccc1O [(47)]	35.6
O=C(Nc1cc(Cl)cc(Cl)c1)c1ccc(Cl)cc1O [(48)]	>90
O=C(Nc1cc(Cl)c(Cl)c(Cl)c1)c1cc(Br)ccc1O [(49)]	70.7
Cc1cc(C)cc(NC(=O)c2cc(Br)ccc2O)c1 [(50)]	66.0
CC(C)(C)c1cc(NC(=O)c2cc(Cl)ccc2O)cc(C(C)(C)C)c1 [(51)]	42.8
O=C(Nc1cccc(-c2ccccc2)c1)c1cc(Cl)ccc1O [(52)]	81.0
COc1cc(NC(=O)c2cc(Cl)ccc2O)cc(-c2ccccc2)c1 [(53)]	52.4
CC(=O)Oc1ccccc1C(=O)Nc1cc(Cl)cc(Cl)c1 [(54)]	78.9
O=C(Nc1cc(C(F)(F)F)cc(C(F)(F)F)c1)c1c(O)cccc1O [(55)]	>90
Cc1ccc(C(=O)Nc2cc(C(F)(F)F)cc(C(F)(F)F)c2)c(O)c1 [(56)]	>90
O=C(Nc1cc(C(F)(F)F)cc(C(F)(F)F)c1)c1cc(Cl)cc(Cl)c1O [(57)]	>90
O=C(Nc1cc(C(F)(F)F)cc(C(F)(F)F)c1)c1c(O)c(Cl)cc(Cl)c1Cl [(59)]	>90
O=C(Nc1cc(C(F)(F)F)cc(C(F)(F)F)c1)c1c(O)cccc1F [(60)]	38.1
O=C(Nc1cc(C(F)(F)F)cc(C(F)(F)F)c1)c1cccc(Cl)c1O [(61)]	>90
O=C(Nc1cc(OCC(F)(F)F)cc(C(F)(F)F)c1)c1cc(Cl)ccc1O [(63)]	79.5
CCCCCCOc1ccc(S(C)(=O)=O)cc1NC(=O)c1cc(Cl)ccc1O [(64)]	73.6
Cc1ccc(C(=O)C(C)(C)C)cc1NC(=O)c1cc(Cl)ccc1O [(65)]	85.5
Cc1ccc(-c2ccccc2)cc1NC(=O)c1cc(Cl)ccc1O [(66)]	84.1
O=C(Nc1cccc(C(F)(F)F)c1)c1cc(Cl)ccc1O [(67)]	>90
O=C(Nc1cccc(OC(F)(F)F)c1)c1cc(Cl)ccc1O [(68)]	>90

SMILES	Inhibition Ratio (PAI-1) [%]
O=C(Nc1ccc(OC(F)(F)F)cc1)c1cc(Cl)ccc1O [(70)]	>90
O=C(Nc1ccc(Cl)cc1Cl)c1cc(Cl)ccc1O [(71)]	>90
CC(C)(C)c1ccc(NC(=O)c2cc(Cl)ccc2O)cc1 [(72)]	71.4
CCCCCCc1ccc(NC(=O)c2cc(Cl)ccc2O)cc1 [(73)]	>90
O=C(Nc1ccc(C2CCCCC2)cc1)c1cc(Cl)ccc1O [(74)]	87.3
O=C(Nc1ccccc1Cl)c1cc(Cl)ccc1O [(77)]	74.3
CCCCc1ccc(NC(=O)c2cc(Cl)ccc2O)cc1 [(78)]	80.6
CC(C)c1cccc(NC(=O)c2cc(Cl)ccc2O)c1 [(81)]	40.0
O=C(Nc1cccc(SC(F)(F)F)c1)c1cc(Cl)ccc1O [(82)]	>90
O=C(Nc1ccc(SC(F)(F)F)cc1)c1cc(Cl)ccc1O [(83)]	>90
O=C(Nc1ccc(S(=O)(=O)C(F)(F)F)cc1)c1cc(Cl)ccc1O [(84)]	>90
O=C(Nc1ccc(F)c(F)c1)c1cc(Cl)ccc1O [(85)]	84.0
CCC(C)c1ccc(NC(=O)c2cc(Cl)ccc2O)cc1 (centres unmarked) [(87)]	89.6
O=C(Nc1ccc(OC(F)F)cc1)c1cc(Cl)ccc1O [(90)]	>90
CC(C)(C)c1cccc(NC(=O)c2cc(Cl)ccc2O)c1 [(92)]	>90
O=C(Nc1cccc(S(=O)(=O)C(F)(F)F)c1)c1cc(Cl)ccc1O [(94)]	>90
CCCCCCOc1cccc(NC(=O)c2cc(Cl)ccc2O)c1 [(95)]	60.1
O=C(Nc1ccc(-c2ccccc2)cc1)c1cc(Cl)ccc1O [(96)]	71.0
O=C(Nc1cc(C(F)(F)F)cc(C(F)(F)F)c1)c1cccc(-c2ccccc2)c1O [(97)]	79.5
CC(C)c1cccc(C(=O)Nc2cc(C(F)(F)F)cc(C(F)(F)F)c2)c1O [(98)]	42.2
CC(C)c1cc(Br)cc(C(=O)Nc2cc(C(F)(F)F)cc(C(F)(F)F)c2)c1O [(99)]	89.4
Cc1cc(Br)cc(C(=O)Nc2cc(C(F)(F)F)cc(C(F)(F)F)c2)c1O [(100)]	>90
O=C(Nc1cc(C(F)(F)F)cc(C(F)(F)F)c1)c1cc(Br)cc(-c2ccccc2)c1O [(103)]	>90
O=C(Nc1cc(C(F)(F)F)cc(C(F)(F)F)c1)c1ccc(-c2ccccc2)cc1O [(106)]	>90

Same assay, conditions: Homo sapiens, TGF-β1 1 ng/mL, 24 hours

SMILES	IC50 [µM]
O=C(Nc1cc(C(F)(F)F)cc(C(F)(F)F)c1)c1cc(Cl)ccc1O [(2)]	~0.05

Tested on: TGF-β induced PAI-1 production
Test: TGF-β induced PAI-1 production in HT1080 cells (Western blotting)
Type: cell-based
Settings: Homo sapiens, HT-1080, TGF-β1 10 ng/mL, 6-hours incubation
Procedure: After incubating HT1080 cells for 48 hours in the MEM medium containing 10% FBS (Fetal Bovine Serum), the medium was changed to a MEM medium containing 1% FBS, and TGF-β1 (final concentration: 10 ng/mL) only, or TGF-β1 (final concentration: 10 ng/mL) and the test substances were added and incubated. As a control, a culture solution without neither TGF-β1 nor the test substances was prepared. After 6-hours incubation, the culture fluids were collected, and the PAI-1 amounts in the culture fluids were measured by the Western blotting. The PAI-1 amount when TGF-β1 only was added being “100%,” and the PAI-1 amount in the control being “0%,” PAI-1 amounts at each concentration of the test substances (PAI-1 inhibition ratios) were calculated, and the concentrations of the compounds, which inhibited PAI-1 production to 50% (IC50) in amount, were obtained.

SMILES	IC50 [µM]
O=C(Nc1cc(C(F)(F)F)cc(C(F)(F)F)c1)c1cc(Cl)ccc1O [(2)]	0.005
O=C(Nc1cc(C(F)(F)F)ccc1C(F)(F)F)c1cc(Br)ccc1O [(3)]	0.083
